Measurements: patent US20100113372A1, “Method For Preparing Kaempferol-3-0-Rutinoside and Composition of Skin External Application Comprising Thereof” (Amorepacific Corporation, priority 2006, published 2010)

How the values were obtained:
collagenase = assay: Inhibitory effect of collagenase expression (collagenase immunoassay of fibroblast culture media); assay type: cell-based; settings: human fibroblasts; for Degree of collagenase expression (%): serum-free DMEM, 1×10^4M for 24 hours, untreated group = 100
Procedure: The effect of inhibiting collagenase expression achieved by kaempferol-3-O-rutinoside obtained from Examples 3 and 4 is measured and compared with that achieved by tocopherol and EGCG. Tocopherol and EGCG are anti-oxidation materials that regenerate an epidermal cell of skin and prevent skin aging.
(§1) Human fibroblasts were inserted in a 96-well microtiter plate containing the DMEM (Dulbecco's Modified Eagle's Media) media with 2.5% fetal bovine serum to a quantity of 5000 cells/well and cultured until the human fibroblasts grow by 90%, then cultured again in the serum-free DMEM media for 24 hours. The kaempferol-3-O-rutinoside of Examples 3 and 4, tocopherol and EGCG dissolved in the serum-free DMEM media were treated at a concentration of 1×10^4M for 24 hours, and the cell culture media was harvested.
The degree of collagenase generation of harvested cell culture media was measured using an instrument for measuring collagenase (Amershampharmacia Company). The harvested cell culture media was added in a 96-well plate coated uniformly with first collagenase antibody, and antigen-antibody reaction was conducted for 3 hours in a thermostat.
After 3 hours, second collagen antibody bonded with chromophore was added in the 96-well plate to react for 15 minutes. After 15 minutes, color developing material was inserted at room temperature for 15 minutes to induce color development, then 1M sulfuric acid was added to terminate the reaction (color development). The color of the reaction solution is yellow and the degree of yellow color can differ according to a degree of reaction progression.
Absorbance of the 96-well plate having the yellow color was measured through an absorbency measurement at 405 nm and a degree of synthesis was calculated by the following equation 1. In the calculation, an absorbance of cell culture media untreated with the material was used as a control group. That is, a degree of collagenase expression of an untreated group is 100, and a degree of collagenase expression of a group treated with the material as compared to that of the control group is obtained.

procollagen = assay: Promoting effect of procollagen generation (procollagen type-1 C-peptide EIA kit); assay type: cell-based; settings: human fibroblasts; for Degree of procollagen generation (%): serum-free DMEM, 1×10^−4M for 24 hours, untreated group = 100
Procedure: The promoting effect of procollagen generation achieved by kaempferol-3-O-rutinoside obtained from Examples 3 and 4 is measured and compared with that achieved by vitamin C. The procollagen is a material inducing collagen generation and is required to generate collagen and prevent aging. Vitamin C is known as an essential component for synthesis of collagen.
as §1, with “4,” for “4, tocopherol”, “vitamin C” for “EGCG”, “1×10^−4M” for “1×10^4M”, “harvested. After 24 hours, the amount of procollagen floating in the culture media was measured using procollagen type-1 C-peptide EIA kit (MK101, Takara, Japan).” for “harvested.”
In an untreated group, a degree of procollagen generation is 100. A degree of procollagen generation of a group treated with the material as compared to that of the control group is obtained.

Row | Molecule | Degree of collagenase expression (%) (collagenase) | Degree of procollagen generation (%) (procollagen) | Effect on collagenase expression (in words) (collagenase; in vitro) | Effect on procollagen generation (in words) (procollagen; in vitro)
1 | O=C(O[C@@H]1Cc2c(O)cc(O)cc2O[C@@H]1c1cc(O)c(O)c(O)c1)c1cc(O)c(O)c(O)c1 [EGCG, reference compound] | 60 | – | – | –
2 | CC1OC(OCC2OC(Oc3c(-c4ccc(O)cc4)oc4cc(O)cc(O)c4c3=O)C(O)C(O)C2O)C(O)C(O)C1O (centres unmarked) [Example 3-1, Kaempferol-3-O-rutinoside] | 70 | 121 | – | –
3 | CC1OC(OCC2OC(Oc3c(-c4ccc(O)cc4)oc4cc(O)cc(O)c4c3=O)C(O)C(O)C2O)C(O)C(O)C1O (centres unmarked) [Example 3-2, Kaempferol-3-O-rutinoside] | 71 | 118 | – | –
4 | CC1OC(OCC2OC(Oc3c(-c4ccc(O)cc4)oc4cc(O)cc(O)c4c3=O)C(O)C(O)C2O)C(O)C(O)C1O (centres unmarked) [Example 3-3, Kaempferol-3-O-rutinoside] | 63 | 138 | – | –
5 | CC1OC(OCC2OC(Oc3c(-c4ccc(O)cc4)oc4cc(O)cc(O)c4c3=O)C(O)C(O)C2O)C(O)C(O)C1O (centres unmarked) [Example 4-1, Kaempferol-3-O-rutinoside] | 68 | 145 | – | –
6 | CC1OC(OCC2OC(Oc3c(-c4ccc(O)cc4)oc4cc(O)cc(O)c4c3=O)C(O)C(O)C2O)C(O)C(O)C1O (centres unmarked) [Example 4-2, Kaempferol-3-O-rutinoside] | 73 | 123 | – | –
7 | CC1OC(OCC2OC(Oc3c(-c4ccc(O)cc4)oc4cc(O)cc(O)c4c3=O)C(O)C(O)C2O)C(O)C(O)C1O (centres unmarked) [Example 4-3, Kaempferol-3-O-rutinoside] | 70 | 122 | – | –
8 | O=C1O[C@H]([C@@H](O)CO)C(O)=C1O [Vitamin C, reference compound] | – | 120 | – | –
9 | CC1OC(OCC2OC(Oc3c(-c4ccc(O)cc4)oc4cc(O)cc(O)c4c3=O)C(O)C(O)C2O)C(O)C(O)C1O (centres unmarked) [kaempferol-3-O-rutinoside] | – | – | inhibits the collagenase expression in vitro | promotes the procollagen generation in vitro
10 | Tocopherol [reference compound] | 75 | – | – | –
